# Results as given in US20210308089A1, “METHODS OF TREATING AND/OR PREVENTING VIRAL INFECTIONS AND/OR DISEASES CAUSED BY VIRUSES IN A SUBJECT IN NEED THEREOF” (priority 2020, published 2021).
# Test system: patients of the REDUCE-IT and earlier EPA placebo-controlled trials
# Experiment: Example 3: adverse events by risk ratio, icosapent ethyl vs placebo (candidate categories; infectious disease terms of interest)
# Settings: for NNT / Risk Ratio (95% CI) / ARR: ISS
# [1] = Frequent Bowel Movements, Any Severity
# [2] = Frequent Bowel Movements, Mild Severity
# [3] = Frequent Bowel Movements, Related
# [4] = Huntington's Chorea, Any Severity
# [5] = Huntington's Chorea, Mild Severity
# [6] = ITT, AMR101 N = 4089, placebo 8 of 4090
# [7] = ITT, AMR101 N = 4089, placebo 10 of 4090
# [8] = ITT, AMR101 N = 4089, placebo 22 of 4090
smiles,measurement,setting,value
"CC/C=C\C/C=C\C/C=C\C/C=C\C/C=C\CCCC(=O)OCC [icosapent ethyl, eicosapentaenoic acid ethyl ester]",NNT,"Flatulence, Mild Severity",129
same,Risk Ratio (95% CI),"Flatulence, Mild Severity",0.424 (0.125 to 1.440) 3
same,ARR,"Flatulence, Related",−0.8%
same,NNT,"Flatulence, Related",121
same,Risk Ratio (95% CI),"Flatulence, Related",0.463 (0.152 to 1.408) 3
same,ARR,[1],−0.6%
same,NNT,[1],173
same,Risk Ratio (95% CI),"Frequent Bowel Movements, Any Severity, case counts given",[0 drug vs 3 PBO]
same,ARR,[2],−0.4%
same,NNT,[2],259
same,Risk Ratio (95% CI),"Frequent Bowel Movements, Mild Severity, case counts given",[0 drug vs 2 PBO]
same,ARR,[3],−0.6%
same,NNT,[3],173
same,Risk Ratio (95% CI),"Frequent Bowel Movements, Related, case counts given",[0 drug vs 3 PBO]
same,ARR,Hot Flush,−0.3%
same,NNT,Hot Flush,292
same,Risk Ratio (95% CI),Hot Flush,0.556 (0.125 to 2.474) 3
same,ARR,[4],−1.3%
same,NNT,[4],77
same,Risk Ratio (95% CI),[4],0.247 (0.067 to 0.908) 4
same,ARR,[5],−0.9%
same,NNT,[5],109
same,Risk Ratio (95% CI),[5],0.318 (0.083 to 1.223)4
same,ARR,Menorrhagia,−0.6%
same,NNT,Menorrhagia,159
same,Risk Ratio (95% CI),Menorrhagia,0.185 (0.021 to 1.653) 5
same,ARR,"Muscle spasms, Related",−0.0%
same,NNT,"Muscle spasms, Related",2007
same,Risk Ratio (95% CI),"Muscle spasms, Related",0.741 (0.046 to 11.826) 2
same,ARR,"Nasopharyngitis, Any Severity",−2.3%
same,NNT,"Nasopharyngitis, Any Severity",43
same,Risk Ratio (95% CI),"Nasopharyngitis, Any Severity",0.588 (0.344 to 1.004) 3
same,ARR,"Nasopharyngitis, Mild Severity",−2.3%
same,NNT,"Nasopharyngitis, Mild Severity",43
same,Risk Ratio (95% CI),"Nasopharyngitis, Mild Severity",0.494 (0.265 to 0.921) 3
same,ARR,"Weight loss, Related",−0.4%
same,NNT,"Weight loss, Related",230
same,Risk Ratio (95% CI),"Weight loss, Related",0.247 (0.026 to 2.369) 4
same,Bronchiectasis TEAE: % of subjects,"ITT, AMR101 N = 4089, placebo 0.1, Fisher's Exact p 0.5076",(0.1) %
same,Hepatosplenomegaly TEAE: % of subjects,"ITT, AMR101 N = 4089, placebo 0.1, Fisher's Exact p 0.6249",(0.0) %
same,Allergic sinusitis TEAE: % of subjects,"ITT, AMR101 N = 4089, placebo 0.1, Fisher's Exact p 0.6874",(0.0) %
same,Mucosal inflammation TEAE: % of subjects,"ITT, AMR101 N = 4089, placebo 0.1, Fisher's Exact p 0.7264",(0.1) %
same,Systemic inflammatory response syndrome TEAE: % of subjects,"ITT, AMR101 N = 4089, placebo 0.2, Fisher's Exact p 0.1092",(0.0) %
same,Splenomegaly TEAE: % of subjects,"ITT, AMR101 N = 4089, placebo 0.2, Fisher's Exact p 0.1792",(0.1) %
same,Neutropenia TEAE: % of subjects,"ITT, AMR101 N = 4089, placebo 0.2, Fisher's Exact p 0.2262",(0.1) %
same,Gingivitis TEAE: % of subjects,"ITT, AMR101 N = 4089, placebo 0.2, Fisher's Exact p 0.3013",(0.1) %
same,Orthopnea TEAE: % of subjects,"ITT, AMR101 N = 4089, placebo 0.2, Fisher's Exact p 0.3873",(0.1) %
same,Helicobacter infection TEAE: % of subjects,"ITT, AMR101 N = 4089, placebo 0.2, Fisher's Exact p 0.4235",(0.1) %
same,Herpes simplex TEAE: % of subjects,"ITT, AMR101 N = 4089, placebo 0.2, Fisher's Exact p 0.5807",(0.1) %
same,Vulvovaginal mycotic infection TEAE: % of subjects,"ITT, AMR101 N = 4089, placebo 0.3, Fisher's Exact p 0.2097",(0.1) %
same,Bronchitis chronic TEAE: % of subjects,"ITT, AMR101 N = 4089, placebo 0.3, Fisher's Exact p 0.5029",(0.2) %
same,Hepatobiliary disorders (SOC) TEAE: % of subjects,"ITT, AMR101 N = 4089, placebo 0.5, Fisher's Exact p 0.0037",(0.1) %
same,Hepatomegaly TEAE: % of subjects,"ITT, AMR101 N = 4089, placebo 0.5, Fisher's Exact p 0.0065",(0.1) %
same,Atelectasis TEAE: % of subjects,"ITT, AMR101 N = 4089, placebo 0.5, Fisher's Exact p 0.0795",(0.3) %
same,Emphysema TEAE: % of subjects,"ITT, AMR101 N = 4089, placebo 0.5, Fisher's Exact p 0.2144",(0.3) %
same,Rhinitis TEAE: % of subjects,"ITT, AMR101 N = 4089, placebo 0.5, Fisher's Exact p 0.4166",(0.4) %
same,Tooth infection TEAE: % of subjects,"ITT, AMR101 N = 4089, placebo 0.7, Fisher's Exact p 0.2514",(0.5) %
same,Influenza like illness TEAE: % of subjects,"ITT, AMR101 N = 4089, placebo 0.7, Fisher's Exact p 0.6709",(0.6) %
same,Thrombocytopenia TEAE: % of subjects,"ITT, AMR101 N = 4089, placebo 0.8, Fisher's Exact p 0.3393",(0.6) %
same,Wheezing TEAE: % of subjects,"ITT, AMR101 N = 4089, placebo 0.9, Fisher's Exact p 0.1162",(0.6) %
same,General disorders and administration site conditions (SOC) TEAE: % of subjects,"ITT, AMR101 N = 4089, placebo 1.0, Fisher's Exact p 0.1800",(0.7) %
same,Sepsis TEAE: % of subjects,"ITT, AMR101 N = 4089, placebo 1.0, Fisher's Exact p 0.3535",(0.8) %
same,Blood and lymphatic system disorders (SOC) TEAE: % of subjects,"ITT, AMR101 N = 4089, placebo 1.2, Fisher's Exact p 0.0279",(0.7) %
same,Hepatosplenomegaly TEAE: number of subjects,"ITT, AMR101 N = 4089, placebo 3 of 4090",1
same,Allergic sinusitis TEAE: number of subjects,"ITT, AMR101 N = 4089, placebo 4 of 4090",2
same,Mucosal inflammation TEAE: number of subjects,"ITT, AMR101 N = 4089, placebo 5 of 4090",3
same,Cough TEAE: % of subjects,"ITT, AMR101 N = 4089, placebo 5.9, Fisher's Exact p 1.0000",(5.9) %
same,Bronchiectasis TEAE: number of subjects,"ITT, AMR101 N = 4089, placebo 6 of 4090",3
same,Influenza TEAE: % of subjects,"ITT, AMR101 N = 4089, placebo 6.6, Fisher's Exact p 0.7541",(6.4) %
same,Pneumonia TEAE: % of subjects,"ITT, AMR101 N = 4089, placebo 6.8, Fisher's Exact p 0.5627",(6.4) %
same,"Respiratory, thoracic and mediastinal disorders (SOC) TEAE: % of subjects","ITT, AMR101 N = 4089, placebo 7.8, Fisher's Exact p 0.2050",(7.0) %
same,Herpes simplex TEAE: number of subjects,[6],5
same,Neutropenia TEAE: number of subjects,[6],3
same,Orthopnea TEAE: number of subjects,[6],4
same,Systemic inflammatory response syndrome TEAE: number of subjects,[6],2
same,Helicobacter infection TEAE: number of subjects,"ITT, AMR101 N = 4089, placebo 9 of 4090",5
same,Gingivitis TEAE: number of subjects,[7],5
same,Splenomegaly TEAE: number of subjects,[7],4
same,Vulvovaginal mycotic infection TEAE: number of subjects,"ITT, AMR101 N = 4089, placebo 11 of 4090",5
same,Bronchitis chronic TEAE: number of subjects,"ITT, AMR101 N = 4089, placebo 12 of 4090",8
same,Infections and infestations (SOC) TEAE: % of subjects,"ITT, AMR101 N = 4089, placebo 14.6, Fisher's Exact p 0.2676",(13.8) %
same,Hepatomegaly TEAE: number of subjects,"ITT, AMR101 N = 4089, placebo 19 of 4090",5
same,Emphysema TEAE: number of subjects,"ITT, AMR101 N = 4089, placebo 20 of 4090",12
same,Subjects with at least one Infectious Disease TEAE of Interest: % of subjects,"ITT, AMR101 N = 4089, placebo 21.6, Fisher's Exact p 0.0562",(19.9) %
same,Atelectasis TEAE: number of subjects,[8],11
same,Hepatobiliary disorders (SOC) TEAE: number of subjects,[8],6
same,Rhinitis TEAE: number of subjects,[8],16
same,Influenza like illness TEAE: number of subjects,"ITT, AMR101 N = 4089, placebo 27 of 4090",23
same,Tooth infection TEAE: number of subjects,"ITT, AMR101 N = 4089, placebo 29 of 4090",20
same,Thrombocytopenia TEAE: number of subjects,"ITT, AMR101 N = 4089, placebo 31 of 4090",23
same,Wheezing TEAE: number of subjects,"ITT, AMR101 N = 4089, placebo 36 of 4090",23
same,General disorders and administration site conditions (SOC) TEAE: number of subjects,"ITT, AMR101 N = 4089, placebo 40 of 4090",28
same,Sepsis TEAE: number of subjects,"ITT, AMR101 N = 4089, placebo 42 of 4090",33
same,Blood and lymphatic system disorders (SOC) TEAE: number of subjects,"ITT, AMR101 N = 4089, placebo 48 of 4090",28
same,Subjects with at least one Infectious Disease Events of Interest (TEAE terms and labs): % of subjects,"ITT, AMR101 N = 4089, placebo 86.8, Fisher's Exact p <.0001",(83.0) %
same,Cough TEAE: number of subjects,"ITT, AMR101 N = 4089, placebo 241 of 4090",241
same,Influenza TEAE: number of subjects,"ITT, AMR101 N = 4089, placebo 271 of 4090",263
same,Pneumonia TEAE: number of subjects,"ITT, AMR101 N = 4089, placebo 277 of 4090",263
same,"Respiratory, thoracic and mediastinal disorders (SOC) TEAE: number of subjects","ITT, AMR101 N = 4089, placebo 318 of 4090",287
same,Infections and infestations (SOC) TEAE: number of subjects,"ITT, AMR101 N = 4089, placebo 599 of 4090",563
same,Subjects with at least one Infectious Disease TEAE of Interest: number of subjects,"ITT, AMR101 N = 4089, placebo 883 of 4090",812
same,Subjects with at least one Infectious Disease Events of Interest (TEAE terms and labs): number of subjects,"ITT, AMR101 N = 4089, placebo 3549 of 4090",3394
same,AR: ADHD (AE table),R-I,0.0%
same,AR: Allergic sinusitis (AE table),R-I,0.1%
same,AR: Alzheimer's Disease (AE table),R-I,0.1%
same,AR: Asthma (AE table),R-I,1.3%
same,AR: Atelectasis (AE table),R-I,0.4%
